# Results from article PMC8264504, “Identification of Koumine as a Translocator Protein 18 kDa Positive Allosteric Modulator for the Treatment of Inflammatory and Neuropathic Pain” (Frontiers in Pharmacology, 2021).
# Like-named read-outs stand apart in the source and are kept apart here.
# Assays:
# [1] = system: formalin-induced inflammatory pain model; assay: Formalin test; assay type: in vivo, mice; conditions: for phase one nociceptive response: given alone, s.c.
# Experimental: The formalin test was assessed as described by Dubuisson and Dennis ([Dubuisson and Dennis, 1977]) with minor modifications. Briefly, mice were allowed to acclimate for at least 30 min in the transparent plastic box before formalin injection. Each animal was injected with 10 μl of 5% formalin into the dorsal surface of the right hindpaw. Mice were then observed at 0–5 min (phase one) and at 11–60 min (phase two) after formalin, and the amount of time spent licking or biting the injected paw was recorded as the nociceptive response. Ro5-4864 or vehicle (5% DMSO) was administered s. c. 30 min prior to the formalin injection, and koumine was administered s. c. 40 min before formalin injection. To determine whether koumine potentiated the anti-inflammatory pain effects of Ro5-4864, koumine or its vehicle was injected 10 min before Ro5-4864 injection. Ro5-4864 was dissolved in DMSO and diluted in sterile physiological saline, and the final concentration of DMSO was 5%. Koumine was dissolved in sterile physiological saline directly. Animals were randomized for treatment and behavioral test were performed in a blinded manner.
# rat model of CCI = assay: Chronic constriction injury (CCI) model, MWT; assay type: in vivo
# From the text: (§1) The rat CCI model of neuropathic pain was produced according to the method described by Bennett and Xie ([Bennett and Xie, 1988]). Adult male SD rats were anesthetized by isoflurane delivered by using the anesthetic machine. The right common sciatic nerve was isolated at the mid-thigh level and loosely ligated using four chromic gut (4–0) ties separated by intervals of 1 mm. For sham surgeries, the right sciatic nerve was exposed using the same procedure, but the nerve was not ligated. On the 9th day after surgery, Ro5-4864 or vehicle (5% DMSO) was administered i. p. 50 min before the measurement of mechanical allodynia, and koumine was administered s. c. 60 min before the measurement of mechanical allodynia. To determine whether koumine potentiated the analgesic effects of Ro5-4864, koumine (0.28 mg/kg, s. c.) or vehicle was injected 10 min before Ro5-4864 (0.0625–1.0 mg/kg, i. p.) injection on day 9 after CCI surgery, and the MWT was determined 50 min after the last injection. Animals were randomized for treatment and behavioral test were performed in a blinded manner. Mechanical allodynia was measured using the procedures described below. Only rats with mechanical withdrawal threshold scores (calculated by CCI ipsilateral paw mechanical withdrawal threshold/contralateral paw mechanical withdrawal threshold) on day 8 after CCI surgery >0.75 were used in the study.
# (§2) Mechanical allodynia was measured using a commercially available electronic von Frey apparatus (Model 2,390; IITC Life Science Inc., Woodland Hills, CA) as described by Mitrirattanakul ([Mitrirattanakul et al., 2006]) with minor modifications. Rats were placed in a Plexiglas box on a steel mesh floor, and analyses were performed using an electronic von Frey apparatus. Stimulation was applied to the center of the hind paw in an upward motion of the von Frey filament until foot withdrawal occurred, and the withdrawal threshold was automatically recorded. The maximum strength of the filament used for von Frey testing was 55 g. The procedure was repeated three times at approximately 5 min intervals for each hind paw, and the MWT was calculated as the mean of the three latencies.
# [2] = system: naïve and CCI sham-operated rats; assay: MWT in naïve and CCI sham-operated rats; assay type: in vivo, rat; conditions: for MWT: given alone
# From the text: as §1, with “Animals were randomized for treatment and behavioral test were performed in a blinded manner.” left out
# as §2, with “Rats were placed in a Plexiglas box on a steel mesh floor, and analyses were performed using an electronic von Frey apparatus.” left out, “The maximum strength of the filament used for von Frey testing was 55 g.” left out
# Figure S5 Modulation of the in vivo efficacy of Ro5-4864 by koumine in the naïve and CCI sham rat model. […] Koumine (0.28 mg/kg) was injected s.c. 9 days after CCI sham surgery, the MWT was determined 60 min after koumine injection. […]
# [3] = system: T98G human glioblastoma cells; assay: Cell proliferation assay (BrdU ELISA); assay type: cell-based
# Experimental: T98G cells were plated at 1 × 10^4 cells/well in 96-well plates. […] After 48 h of drug exposure, proliferation was indexed using a BrdU ELISA Kit (Roche Molecular Diagnostics) according to the manufacturer’s protocol, and absorption was measured at 370 nm (reference wavelength 492 nm).
# rat C6 glioma cells = assay: Pregnenolone production; assay type: cell-based; conditions: for EC50: read-out: EC50, pregnenolone production
smiles,measurement,setting,value
"CN1C(=O)CN=C(c2ccc(Cl)cc2)c2cc(Cl)ccc21 [Ro5-4864, reference compound]",phase two nociceptive response,[1]; Ro5-4864 alone 0.00016–0.5 mg/kg s.c. 30 min before formalin,produced a dose-dependent antinociceptive effect
same,phase one nociceptive response,[1],produced an antinociceptive effect
same,CCI-induced mechanical allodynia (MWT),"rat model of CCI; Ro5-4864 alone 0.0625–1.0 mg/kg i.p., 9 days after surgery",inhibited CCI-induced mechanical allodynia in a dose-dependent manner
same,MWT,[2],Neither Ro5-4864 nor koumine altered the MWT
same,"EC20 concentration, inhibition of cell proliferation","[3]; 48 h, BrdU",~23 µM
same,EC50,"[3]; 48 h, BrdU, read-out: EC50, inhibition of cell proliferation",66 µM
same,"EC20 concentration, pregnenolone production",rat C6 glioma cells,~11 µM
same,increase in pregnenolone production,rat C6 glioma cells,approximately 50%
same,EC50,rat C6 glioma cells,29 µM
C=C[C@@]12CN(C)[C@H]3C[C@]14C(=Nc1ccccc14)[C@H]1C[C@@H]2[C@@H]3CO1 [koumine],"modulation of Ro5-4864-mediated analgesic effect, phase two",[1]; 0.4 mg/kg koumine s.c. 10 min before 0.00016–0.02 mg/kg Ro5-4864 s.c.,significantly augment
same,"modulation of Ro5-4864-mediated analgesic response, first phase",[1]; 0.4 mg/kg koumine s.c. 10 min before Ro5-4864,did not increase
same,phase one nociceptive response,[1],ineffective
same,significant inhibition of second-phase nociceptive response,[1]; koumine alone 0.08 and 0.4 mg/kg s.c.,not
same,second-phase nociceptive response,[1]; koumine alone 2.0 and 10 mg/kg s.c. 40 min before formalin,significantly inhibited the second-phase nociceptive response
same,modulation of Ro5-4864-mediated antinociceptive activity (MWT),"rat model of CCI; 0.28 mg/kg koumine s.c. 10 min before 0.0625–0.5 mg/kg Ro5-4864 i.p., day 9",significantly augmented
same,notable antinociceptive effect on CCI-induced mechanical allodynia (MWT),"rat model of CCI; koumine alone 0.28 mg/kg s.c., day 9",not
same,CCI-induced mechanical allodynia (MWT),"rat model of CCI; koumine alone 1.4 and 7.0 mg/kg s.c., day 9",notable antinociceptive effects
same,MWT,[2],Neither Ro5-4864 nor koumine altered the MWT
same,modulation of antinociceptive effect of Ro5-4864 (MWT),[2]; koumine 0.28 mg/kg s.c. before Ro5-4864 i.p.,could not significantly augment
same,shift of PK11195 concentration-response curve,[3]; 316.3 μM koumine,produced a leftward shift in the potency
same,shift of Ro5-4864 concentration-response curve,[3]; 400 μM koumine,produced a leftward shift in the potency
same,cell proliferation,[3]; koumine on its own at 1–600 μM,did not affect
same,modulation of inhibition of proliferation,[3]; koumine with an EC20 concentration of PK11195 (∼75 μM),significantly increased the inhibition of proliferation
same,modulation of inhibition of proliferation,[3]; koumine with an EC20 concentration of Ro5-4864 (∼23 μM),significantly increased the inhibition of proliferation
same,EC50,"rat C6 glioma cells; Rattus norvegicus, C6 glioma, 2 h",270 µM
same,Emax,"rat C6 glioma cells; Rattus norvegicus, C6 glioma, 2 h, read-out: Emax, pregnenolone production",33%
same,modulation of pregnenolone production activity,rat C6 glioma cells; koumine with an EC20 concentration of PK11195 (∼27 μM),did not significantly increase
same,modulation of pregnenolone production activity,rat C6 glioma cells; koumine with an EC20 concentration of Ro5-4864 (∼11 μM),did not significantly increase
